Measured values from patent US9833497B2, “Human originated EGF domain proteins and use of the same” (CHENGDU SOURCEBIO LIMITED-LIABILITY COMPANY, priority 2013, dated 2017).

Assays:
Format in all cases: cell-based
Aeromonas hydrophila = experiment: MIC against Gram-negative bacteria: Aeromonas hydrophila
Outline: (§1)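 First, colonies from LB agar were grown in LB at 37° C, 185 rpm, to McFarland turbidity 0.5, then centrifuged and resuspended in fresh LB. Next, wells received 5×10^5 CFU/mL bacteria plus two-fold serially diluted EGF domain protein (triplicate). Finally, plates were shaken at 37° C and the no-growth concentration taken as MIC.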

Klebsiella pneumonia = experiment: MIC against Gram-negative bacteria: Klebsiella pneumonia
Outline: as §1

Moraxella catarrhalis = experiment: MIC against Gram-negative bacteria: Moraxella catarrhalis
Outline: as §1

Proteus vulgaris = experiment: MIC against Gram-negative bacteria: Proteus vulgaris
Outline: as §1

E. coli DH5α = experiment: Antibacterial activity: MIC and growth curve against E. coli DH5α in 96-well plate; settings: minimal inhibitory concentration against E. coli DH5α; 96-well plate, 5×10^5 CFU/mL, 37° C., judged after 8 h
Outline: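 MIC taken as lowest protein level with no bacterial growth, tracked by A600 every 30 min during 37 °C, 175 rpm culture. Two-fold protein series 50-12.5 μg/mL final, triplicate wells, against 5×10^5 CFU/mL of LB-washed mid-log cells.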

Enterobacter cloacae = experiment: MIC against Gram-negative bacteria: Enterobacter cloacae
Outline: as §1

Pseudomonas aeruginosa = experiment: MIC against Gram-negative bacteria: Pseudomonas aeruginosa
Outline: as §1

Serratia marcescens = experiment: MIC against Gram-negative bacteria: Serratia marcescens
Outline: as §1

E. coli BL21 = experiment: MIC against Gram-negative bacteria: E. coli BL21; settings: for MIC (μg/mL) E. coli BL21 / MIC / MIC against E. coli BL21: E. coli BL21
Outline: as §1

Citrobacter diversus = experiment: MIC against Gram-negative bacteria: Citrobacter diversus
Outline: as §1

Proteus mirabilis = experiment: MIC against Gram-negative bacteria: Proteus mirabilis
Outline: as §1

[1] = A. hydrophila, 10 h cultivation at 37° C., 5×10^5 CFU/mL
[2] = K. pneumonia, 10 h cultivation at 37° C., 5×10^5 CFU/mL
[3] = M. catarrhalis, 10 h cultivation at 37° C., 5×10^5 CFU/mL
[4] = P. vulgaris, 10 h cultivation at 37° C., 5×10^5 CFU/mL
[5] = E. cloacae, 10 h cultivation at 37° C., 5×10^5 CFU/mL
[6] = P. aeruginosa, 10 h cultivation at 37° C., 5×10^5 CFU/mL
[7] = S. marcescens, 10 h cultivation at 37° C., 5×10^5 CFU/mL
[8] = 10 h cultivation at 37° C., 5×10^5 CFU/mL
[9] = C. diversus, 10 h cultivation at 37° C., 5×10^5 CFU/mL
[10] = P. mirabilis, 10 h cultivation at 37° C., 5×10^5 CFU/mL
[11] = 10 h cultivation at 37° C., 5×10^5 CFU/mL, two-fold serial dilution
[12] = A. hydrophila, 10 h cultivation at 37° C.
[13] = K. pneumonia, 10 h cultivation at 37° C.
[14] = M. catarrhalis, 10 h cultivation at 37° C.
[15] = P. vulgaris, 10 h cultivation at 37° C.
[16] = E. cloacae, 10 h cultivation at 37° C.
[17] = P. aeruginosa, 10 h cultivation at 37° C.
[18] = S. marcescens, 10 h cultivation at 37° C.
[19] = C. diversus, 10 h cultivation at 37° C.
[20] = P. mirabilis, 10 h cultivation at 37° C.
[21] = Aeromonas hydrophila, 96-well plate, 5×10^5 CFU/mL, 37° C., 10 h
[22] = Klebsiella pneumonia, 96-well plate, 5×10^5 CFU/mL, 37° C., 10 h
[23] = Moraxella catarrhalis, 96-well plate, 5×10^5 CFU/mL, 37° C., 10 h
[24] = Proteus vulgaris, 96-well plate, 5×10^5 CFU/mL, 37° C., 10 h
[25] = Enterobacter cloacae, 96-well plate, 5×10^5 CFU/mL, 37° C., 10 h
[26] = Pseudomonas aeruginosa, 96-well plate, 5×10^5 CFU/mL, 37° C., 10 h
[27] = Serratia marcescens, 96-well plate, 5×10^5 CFU/mL, 37° C., 10 h
[28] = 96-well plate, 5×10^5 CFU/mL, 37° C., 10 h
[29] = Citrobacter diversus, 96-well plate, 5×10^5 CFU/mL, 37° C., 10 h
[30] = Proteus mirabilis, 96-well plate, 5×10^5 CFU/mL, 37° C., 10 h

| Substance | MIC (μg/mL) A. hydrophila (Aeromonas hydrophila; [1]) [µg/mL] | MIC (μg/mL) K. pneumonia (Klebsiella pneumonia; [2]) [µg/mL] | MIC (μg/mL) M. catarrhalis (Moraxella catarrhalis; [3]) [µg/mL] | MIC (μg/mL) P. vulgaris (Proteus vulgaris; [4]) [µg/mL] | MIC (E. coli DH5α) [µg/mL] | MIC (μg/mL) E. cloacae (Enterobacter cloacae; [5]) [µg/mL] | MIC (μg/mL) P. aeruginosa (Pseudomonas aeruginosa; [6]) [µg/mL] | MIC (μg/mL) S. marcescens (Serratia marcescens; [7]) [µg/mL] | MIC (μg/mL) E. coli BL21 (E. coli BL21; [8]) [µg/mL] | MIC (μg/mL) C. diversus (Citrobacter diversus; [9]) [µg/mL] | MIC (μg/mL) P. mirabilis (Proteus mirabilis; [10]) [µg/mL] | MIC (Aeromonas hydrophila; [12]) [µg/mL] | MIC (Klebsiella pneumonia; [13]) [µg/mL] | MIC (Moraxella catarrhalis; [14]) [µg/mL] | MIC (Proteus vulgaris; [15]) [µg/mL] | MIC (Enterobacter cloacae; [16]) [µg/mL] | MIC (Pseudomonas aeruginosa; [17]) [µg/mL] | MIC (Serratia marcescens; [18]) [µg/mL] | MIC (E. coli BL21; 10 h cultivation at 37° C.) [µg/mL] | MIC (Citrobacter diversus; [19]) [µg/mL] | also measured |
| --- | --- | --- | --- | --- | --- | --- | --- | --- | --- | --- | --- | --- | --- | --- | --- | --- | --- | --- | --- | --- | --- |
| PRT893 (NINECSSQPCRHGGTCQDRDNAYLCFCLKGTTGPNCE; listed as Homo sapiens) | 25 | 25 | 25 | 50 | 12.5 | 12.5 | 50 | 12.5 | 25 | 50 | 12.5 |  |  |  |  |  |  |  |  |  |  |
| PRT1101 (MKDPCFSNPCQGSATCVNTPGERSFLCKCPPGYSGTICE; listed as Homo sapiens) |  |  |  |  | 25 |  |  |  |  |  |  |  |  |  |  |  |  |  |  |  | MIC A. hydrophila (Aeromonas hydrophila; [11]): 50 µg/mL; MIC K. pneumonia (Klebsiella pneumonia; [11]): 12.5 µg/mL; MIC M. catarrhalis (Moraxella catarrhalis; [11]): 25 µg/mL; MIC P. vulgaris (Proteus vulgaris; [11]): 25 µg/mL; MIC E. cloacae (Enterobacter cloacae; [11]): 25 µg/mL; MIC P. aeruginosa (Pseudomonas aeruginosa; [11]): 25 µg/mL; MIC S. marcescens (Serratia marcescens; [11]): 12.5 µg/mL; MIC E. coli BL21 (E. coli BL21; [11]): 50 µg/mL; MIC C. diversus (Citrobacter diversus; [11]): 12.5 µg/mL; MIC P. mirabilis (Proteus mirabilis; [11]): 50 µg/mL |
| PRT923 (LDDACISNPCHKGALCDTNPLNGQYICTCPQGYKGADCT; listed as Homo sapiens) |  |  |  |  | 25 |  |  |  |  |  |  | 50 | 25 | 12.5 | 50 | 12.5 | 25 | 25 | 50 | 25 | MIC (Proteus mirabilis; [20]): 25 µg/mL |
| PRT45 (SINSCPNNCSGHGKCTTSVSVPSQVYCECDKYWKGEACD; listed as Homo sapiens) |  |  |  |  | 50 |  |  |  |  |  |  |  |  |  |  |  |  |  |  |  | MIC (μg/mL) A. hydrophila (Aeromonas hydrophila; [21]): 25 µg/mL; MIC (μg/mL) K. pneumonia (Klebsiella pneumonia; [22]): 25 µg/mL; MIC (μg/mL) M. catarrhalis (Moraxella catarrhalis; [23]): 25 µg/mL; MIC (μg/mL) P. vulgaris (Proteus vulgaris; [24]): 12.5 µg/mL; MIC (μg/mL) E. cloacae (Enterobacter cloacae; [25]): 50 µg/mL; MIC (μg/mL) P. aeruginosa (Pseudomonas aeruginosa; [26]): 12.5 µg/mL; MIC (μg/mL) S. marcescens (Serratia marcescens; [27]): 50 µg/mL; MIC (μg/mL) E. coli BL21 (E. coli BL21; [28]): 25 µg/mL; MIC (μg/mL) C. diversus (Citrobacter diversus; [29]): 12.5 µg/mL; MIC (μg/mL) P. mirabilis (Proteus mirabilis; [30]): 50 µg/mL |
| PRT1335 (MTDICKSDNPCHRNANCTTVAPGRTECICQKGYVGDGLTCY; listed as Homo sapiens) |  |  |  |  | 50 |  |  |  |  |  |  |  |  |  |  |  |  |  |  |  | MIC against A. hydrophila (Aeromonas hydrophila; [21]): 12.5 µg/mL; MIC against K. pneumonia (Klebsiella pneumonia; [22]): 12.5 µg/mL; MIC against M. catarrhalis (Moraxella catarrhalis; [23]): 50 µg/mL; MIC against P. vulgaris (Proteus vulgaris; [24]): 12.5 µg/mL; MIC against E. cloacae (Enterobacter cloacae; [25]): 50 µg/mL; MIC against P. aeruginosa (Pseudomonas aeruginosa; [26]): 50 µg/mL; MIC against S. marcescens (Serratia marcescens; [27]): 50 µg/mL; MIC against E. coli BL21 (E. coli BL21; [28]): 12.5 µg/mL; MIC against C. diversus (Citrobacter diversus; [29]): 25 µg/mL; MIC against P. mirabilis (Proteus mirabilis; [30]): 25 µg/mL |
| PRT821 (DVDECRTHNGGCQHRCVNTPGSYLCECKPGFRLHTDSRTCL; listed as Homo sapiens) | 50 | 25 | 12.5 | 12.5 | 12.5 | 25 | 12.5 | 50 | 12.5 | 25 | 50 |  |  |  |  |  |  |  |  |  |  |
| PRT1382 (GVRSCPRGCSQRGRCKDGRCVCDPGYTGEDC; listed as Homo sapiens) |  |  |  |  | 25 |  |  |  |  |  |  |  |  |  |  |  |  |  |  |  | MIC against A. hydrophila (Aeromonas hydrophila; Aeromonas hydrophila, 5×10^5 CFU/mL, 10 h cultivation at 37° C.): 12.5 µg/mL; MIC against K. pneumonia (Klebsiella pneumonia; Klebsiella pneumonia, 5×10^5 CFU/mL, 10 h cultivation at 37° C.): 100 µg/mL; MIC against M. catarrhalis (Moraxella catarrhalis; Moraxella catarrhalis, 5×10^5 CFU/mL, 10 h cultivation at 37° C.): 12.5 µg/mL; MIC against P. vulgaris (Proteus vulgaris; Proteus vulgaris, 5×10^5 CFU/mL, 10 h cultivation at 37° C.): 25 µg/mL; MIC against E. cloacae (Enterobacter cloacae; Enterobacter cloacae, 5×10^5 CFU/mL, 10 h cultivation at 37° C.): 50 µg/mL; MIC against P. aeruginosa (Pseudomonas aeruginosa; Pseudomonas aeruginosa, 5×10^5 CFU/mL, 10 h cultivation at 37° C.): 50 µg/mL; MIC against S. marcescens (Serratia marcescens; Serratia marcescens, 5×10^5 CFU/mL, 10 h cultivation at 37° C.): 12.5 µg/mL; MIC against E. coli BL21 (E. coli BL21; 5×10^5 CFU/mL, 10 h cultivation at 37° C.): 12.5 µg/mL; MIC against C. diversus (Citrobacter diversus; Citrobacter diversus, 5×10^5 CFU/mL, 10 h cultivation at 37° C.): 50 µg/mL; MIC against P. mirabilis (Proteus mirabilis; Proteus mirabilis, 5×10^5 CFU/mL, 10 h cultivation at 37° C.): 12.5 µg/mL |
| PRT971 (DINDCDPNPCLNGGSCQDGVGSFSCSCLPGFAGPRCA; listed as Homo sapiens) |  |  |  |  | 50 |  |  |  |  |  |  | 50 | 100 | 25 | 12.5 | 25 | 50 | 25 | 12.5 | 12.5 | MIC (Proteus mirabilis; [20]): 50 µg/mL |
| PRT978 (DVDECASQPCQHGGSCIDLVARYLCSCPPGTLGVLCE; listed as Homo sapiens) |  |  |  |  | 12.5 |  |  |  |  |  |  | 25 | 50 | 12.5 | 50 | 12.5 | 12.5 | 12.5 | 50 | 50 | MIC (Proteus mirabilis; [20]): 25 µg/mL |
| PRT171 (CDPSPCKNGGSCTDLENSYSCTCPPGFYGKIC; listed as Homo sapiens) | 50 | 12.5 | 12.5 | 50 | 25 | 25 | 25 | 25 | 50 | 25 | 25 |  |  |  |  |  |  |  |  |  |  |
